Patent EP1452605A1, “Method for determining antiviral activity” (Universiteit Utrecht Holding B.V., priority 2003, dated 2004)

Assays:
[1] = tested on: HIV-1Ba-L; experiment: HIV-1 infection of PBMC, p24-core antigen ELISA; type: cell-based; settings: for antiviral activity compared to APHS / antiviral activity compared to compound 18: PBMC, HIV-1Ba-L
Protocol: To correct for the input virus, an extra control consisting of medium containing the same amount of input virus as added to the cells was included in the experiment. The amount of p24 in this control was subsequently subtracted from the p24 values of the samples in order to obtain the exact amount of p24 produced by the cells. p24-core antigen quantification by ELISA After 2 or 7 days incubation, samples of the supernatants were collected, inactivated by addition of Empigen (Calbiochem, La Jolla, CA, USA) and by heat inactivation at 56°C for 30 min. p24-core antigen concentration was determined by an enzyme linked immunoabsorbent assay (ELISA) (AMPAK™, DAKO, Cambridgeshire, UK) as described previously ^18,19. The optical density values were converted into p24 concentration (ng/ml) with the use of a calibration curve made by serial dilutions of recombinant p24 protein (NIBSC, UK) that was submitted to the same treatment as the samples.
(§1) To correct for the input virus, an extra control consisting of medium containing the same amount of input virus as added to the cells was included in the experiment. The amount of p24 in this control was subsequently subtracted from the p24 values of the samples in order to obtain the exact amount of p24 produced by the cells.
After 7 days incubation, samples of the supernatants were collected, inactivated by addition of Empigen (Calbiochem, La Jolla, CA, USA) and by heat inactivation at 56°C for 30 min. p24-core antigen concentration was determined by an ELISA (AMPAK™, DAKO, Cambridgeshire, UK) as described previously ^39,40. The optical density values were converted into p24 concentration (ng/ml) with the use of a calibration curve made by serial dilutions of recombinant p24 protein (NIBSC, UK) that was submitted to the same treatment as the samples.
as §1
After 7 days incubation, samples of the supernatants were collected, inactivated by addition of Empigen (Calbiochem, La Jolla, CA, USA) and by heat inactivation at 56°C for 30 min. p24-core antigen concentration was determined by an enzyme linked immunoabsorbent assay (ELISA) (AMPAK™, DAKO, Cambridgeshire, UK) as described previously 15,16. The optical density values were converted into p24 concentration (ng/ml) with the use of a calibration curve made by serial dilutions of recombinant p24 protein (NIBSC, UK) that was submitted to the same treatment as the samples.

[2] = in vitro; settings: human, pbmc
[3] = tested on: HIV-1Ba-L; experiment: Combination of HIV-1 inhibitors in HIV-1Ba-L infected PBMC (checker board, CalcuSyn)
Protocol: After 7 days of incubation, p24 antigen in culture supernatant was quantified by ELISA and cellular viability was assessed by a cytotoxicity assay. fa was calculated for each drug combination after p24 quantification. Using the CalcuSyn program, dose-effect curves were plotted for each drug combination, i.e., each dose was plotted against the corresponding fa value. […] CI values were calculated using the mutually nonexclusive assumption.

[4] = tested on: PBMC; experiment: Cellular viability assay (MTT) of PBMC; settings: PBMC
[5] = biological target: T1, COX-2 (Homo sapiens, UniProt P35354); settings: cited from earlier work
T1 sequence (P35354 18-604): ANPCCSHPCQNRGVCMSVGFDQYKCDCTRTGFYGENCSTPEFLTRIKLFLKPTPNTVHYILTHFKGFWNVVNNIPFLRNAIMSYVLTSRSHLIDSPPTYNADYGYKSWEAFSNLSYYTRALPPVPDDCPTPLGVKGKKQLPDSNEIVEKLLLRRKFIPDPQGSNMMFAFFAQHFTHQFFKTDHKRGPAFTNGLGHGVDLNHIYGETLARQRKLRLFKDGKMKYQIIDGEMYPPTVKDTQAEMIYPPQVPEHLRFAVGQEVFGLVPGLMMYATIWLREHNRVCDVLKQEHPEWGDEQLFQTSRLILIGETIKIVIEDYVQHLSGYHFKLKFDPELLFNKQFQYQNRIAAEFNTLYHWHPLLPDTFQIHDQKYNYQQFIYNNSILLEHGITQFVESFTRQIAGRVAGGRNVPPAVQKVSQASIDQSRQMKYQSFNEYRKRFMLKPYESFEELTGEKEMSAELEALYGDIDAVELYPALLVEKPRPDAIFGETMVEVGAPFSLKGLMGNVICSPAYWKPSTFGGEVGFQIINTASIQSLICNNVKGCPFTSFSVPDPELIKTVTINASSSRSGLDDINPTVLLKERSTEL

[6] = Human immunodeficiency virus 1, PBMC, 168 h
[7] = Human immunodeficiency virus 1, 168 h, PBMC infected with HIV-1Ba-L, p24 antigen after 7 days, read-out: IC50
[8] = Human immunodeficiency virus 1, PBMC, 168 h, read-out: IC50 Drug, drug alone, head over this column prints Combination
[9] = read-out: IC50 Combination Drug, drug in combination with APHS at the equipotent ratio (1 : 1)
[10] = PBMC infected with HIV-1Ba-L, p24 antigen after 7 days, read-out: IC50

Compound: CCCCCSc1ccccc1O [compound 19]
- IC50 [1, 6]: 0.9 µM
- antiviral activity compared to APHS [1]: improved

Compound: CCCCCCCSc1ccccc1OC(C)=O [compound 11]
- CC50 at 168 h [2]: 48 µM
- IC50 [1, 7]: 10 µM

Compound: CC(C)c1nc(CN(C)C(=O)N[C@H](C(=O)N[C@@H](Cc2ccccc2)C[C@H](O)[C@H](Cc2ccccc2)NC(=O)OCc2cncs2)C(C)C)cs1 [RTV, ritonavir]
- IC50 [3, 8]: 6 nM
- IC50 [3, 9]: 3 nM

Compound: CCSc1ccccc1O [compound 25]
- IC50 [1, 6]: 4 µM
- antiviral activity compared to APHS [1]: improved

Compound: CCCCCCCSc1ccccc1OC(=O)CCCC [compound 13, Phenol, 2-(heptylthio)-, valerate]
- cytotoxicity compared to APHS [4]: decreased
- antiviral activity compared to APHS [1]: decreased

Compound: CSc1ccccc1OC(C)=O [APHS-d4]
- COX-2 activity, potency and selectivity compared with APHS [5]: more selective than APHS
- times less potent than APHS against COX-2 [5]: 100

Compound: CCCCC#CCSc1ccccc1O [APHS-d3]
- COX-2 activity, potency and selectivity compared with APHS [5]: without COX-2 activity

Compound: CCCCCCCCSc1ccccc1OC(C)=O [compound 9]
- CC50 at 168 h [2]: 135 µM
- IC50 [1, 7]: 20 µM

Compound: CCCCCCCCSc1ccccc1O [compound 8]
- cytotoxicity compared to APHS [4]: increase
- antiviral activity compared to APHS [1]: less antiviral activity than APHS

Compound: Nc1ccn([C@@H]2CS[C@H](CO)O2)c(=O)n1 [3TC, lamivudine]
- IC50 [3, 8]: 10 nM
- IC50 [3, 9]: 3 nM

Compound: CCCCCCCSc1ccccc1O [compound 10]
- cytotoxicity compared to APHS [4]: increase
- antiviral activity compared to APHS [1]: less antiviral activity than APHS

Compound: CCCCCCCSc1ccccc1OC(=O)C(F)(F)F [compound 12, Acetic acid, trifluoro-, 2-(heptylthio) phenylester]
- cytotoxicity compared to APHS [4]: decreased
- antiviral activity compared to APHS [1]: decreased

Compound: CCCCOCCSc1ccccc1OC(=O)C(F)(F)F [compound 7, Acetic acid, trifluoro-, 2-(2-butoxyethylthio)phenylester]
- cytotoxicity compared to APHS [4]: decreased
- antiviral activity compared to APHS [1]: decreased

Compound: CCCCCCCSc1ccccc1OC(=O)c1ccccc1 [compound 14, Phenol, 2-(heptylthio)-, benzoate]
- cytotoxicity compared to APHS [4]: increased
- antiviral activity compared to APHS [1]: decreased

Compound: CC(=O)Oc1ccccc1C(=O)O [aspirin, reference compound]
- times less potent than APHS against COX-2 [5]: 60
- times less selective than APHS for COX-2 [5]: 100

Compound: CCCCSc1ccccc1O [compound 21]
- IC50 [1, 6]: 3 µM
- antiviral activity compared to APHS [1]: improved

Compound: CCCCCCCSc1ccc(O)cc1 [compound 15]
- cytotoxicity compared to APHS [4]: increased
- fold increase in cytotoxicity compared to APHS [4]: about 10
- IC50 [1, 10]: 3 µM
- antiviral activity compared to APHS [1]: increased

Compound: CC(C)(C)NC(=O)[C@@H]1CN(Cc2cccnc2)CCN1C[C@@H](O)C[C@@H](Cc1ccccc1)C(=O)N[C@H]1c2ccccc2C[C@H]1O [IDV, indinavir]
- IC50 [3, 8]: 11 nM
- IC50 [3, 9]: 5 nM

Compound: CCCCCCSc1ccccc1O [compound 17]
- cytotoxicity compared to APHS [4]: increase
- IC50 [1, 6]: 4 µM
- antiviral activity compared to APHS [1]: improvement

Compound: CCSc1ccccc1OC(C)=O [compound 26]
- antiviral activity compared to compound 18 [1]: worse

Compound: CCCSc1ccccc1O [compound 23]
- IC50 [1, 6]: 5 µM
- antiviral activity compared to APHS [1]: improved

Compound: CCCCCSc1ccccc1OC(C)=O [compound 20]
- antiviral activity compared to compound 18 [1]: worse

Compound: CCCCSc1ccccc1OC(C)=O [compound 22]
- antiviral activity compared to compound 18 [1]: worse

Compound: CCCCCCCSc1ccccc1OC(C)=O [APHS-d2]
- COX-2 activity, potency and selectivity compared with APHS [5]: as potent as APHS but less selective against COX-2 than APHS

Compound: CCCCCCSc1ccccc1OC(C)=O [compound 18]
- CC50 ([4]; read-out: TC50, 7 days, MTT): 119 µM
- IC50 [1, 10]: 3 µM

Compound: CCCCC#CCS(=O)(=O)c1ccccc1OC(C)=O [APHS-d1]
- COX-2 activity, potency and selectivity compared with APHS [5]: without anti-COX-2 activity

Compound: CCCCC#CCSc1ccccc1OCC [compound 1, Benzene, 1-ethoxy-2-(2-heptynylthio)-]
- cytotoxicity compared to APHS [4]: decreased
- antiviral activity compared to APHS [1]: decreased

Compound: CCCCCCCSc1ccc(OC(C)=O)cc1 [compound 16, Phenol, 4-(heptylthio)-, acetate]
- cytotoxicity compared to APHS [4]: increase
- fold increase in cytotoxicity compared to APHS [4]: about 10
- IC50 [1, 7]: 2 µM
- antiviral activity compared to APHS [1]: increase

Compound: CCCSc1ccccc1OC(C)=O [compound 24]
- antiviral activity compared to compound 18 [1]: worse

Compound: O=C1Nc2ccc(Cl)cc2[C@@](C#CC2CC2)(C(F)(F)F)O1 [EFV, efavirenz]
- IC50 [3, 8]: 1 nM
- IC50 [3, 9]: 0.2 nM
